In patent US20090047246A1, “NOVEL INHIBITORS OF HEPATITIS C VIRUS REPLICATION” (InterMune, Inc., priority 2007, published 2009):

Target: T1, HCV NS3 helicase (Hepatitis C virus genotype 1b, UniProt P26663)
T1 construct: full-length NS3 (1-631), purified at Array BioPharma
Assay: HCV Helicase Prompt FRET Assay (Example A)
Type: biochemical
Conditions: HCV NS3 helicase; tables do not say whether Example A or Example B assay; read-out: IC50 Activity
Protocol: Test compounds were diluted to 2.5 mM by adding 6 uL of a 10 mM solution of the compound to 18 uL of DMSO in a 384-well Costar polypropylene plate. Serial dilutions (2.5×) were performed in the plate using DMSO as the diluent. 1 ul of solution was transferred from each well to a new 384-well Costar polypropylene plate.
A 2× mixture was prepared containing 100 nM helicase substrate, 500 nM helicase capture strand (CS), and 600 μM ATP by diluting stock solutions with assay buffer consisting of 25 mM MOPS, pH 7.0, and 1.5 mM MgCl2, 0.005% (v/v) Triton X-100. Stock helicase substrate was prepared by annealing a FAM-labeled oligonucleotide to a BHQ-1 labeled oligonucleotide, which were both custom synthesized and HPLC-purified at Biosearch Technologies. The FAM-labeled and BHQ-labeled oligonucleotide had the following sequences:
The helicase capture strand was custom synthesized and purified at Integrated DNA Technologies. The helicase capture strand had the following sequence:
The ATP solution was prepared in MilliQ water, pH adjusted to approximately 7 with NaOH. ATP powder was obtained from Sigma (A-7699). The concentration was determined via A260 (ext. coeff=15,400 M^−1cm^−1).
11.5 μL of assay buffer was added to all wells of the plate containing luL of test compound. 5 μL of the Compound/assay buffer mixture was added to a black polystyrene 384-well Proxiplate. A 4× Enzyme solution was prepared by diluting enzyme stock containing full-length NS3 (1-631), purified at Array BioPharma, with assay buffer. 5 μL of the 4× Enzyme solution was added to the Proxiplate and incubated for 5 minutes (for control wells lacking enzyme, assay buffer was used instead). 10 μL of 2× substrate/CS/ATP mixture was then added to all wells of Proxiplate. The final assay conditions included 50 nM Substrate, 250 nM Capture Strand, 300 μM ATP, 5 or 6 nM Enzyme, and 2% (v/v) DMSO. The reaction proceeded for 70 cycles (˜30 min.) on an Envision at room temperature. The plate was read using the Envision (top mirror=FITC; Excitation filter=FITC 485; Emission filter=FITC 535). The fluorescence intensity was recorded for a total of 30 minutes. The initial rates of the reactions was calculated and used to calculate IC50 values. The IC50 curve fitting was performed using either a 4-parameter or 5-parameter logistic equation.

T1 sequence (P26663 1027-1657): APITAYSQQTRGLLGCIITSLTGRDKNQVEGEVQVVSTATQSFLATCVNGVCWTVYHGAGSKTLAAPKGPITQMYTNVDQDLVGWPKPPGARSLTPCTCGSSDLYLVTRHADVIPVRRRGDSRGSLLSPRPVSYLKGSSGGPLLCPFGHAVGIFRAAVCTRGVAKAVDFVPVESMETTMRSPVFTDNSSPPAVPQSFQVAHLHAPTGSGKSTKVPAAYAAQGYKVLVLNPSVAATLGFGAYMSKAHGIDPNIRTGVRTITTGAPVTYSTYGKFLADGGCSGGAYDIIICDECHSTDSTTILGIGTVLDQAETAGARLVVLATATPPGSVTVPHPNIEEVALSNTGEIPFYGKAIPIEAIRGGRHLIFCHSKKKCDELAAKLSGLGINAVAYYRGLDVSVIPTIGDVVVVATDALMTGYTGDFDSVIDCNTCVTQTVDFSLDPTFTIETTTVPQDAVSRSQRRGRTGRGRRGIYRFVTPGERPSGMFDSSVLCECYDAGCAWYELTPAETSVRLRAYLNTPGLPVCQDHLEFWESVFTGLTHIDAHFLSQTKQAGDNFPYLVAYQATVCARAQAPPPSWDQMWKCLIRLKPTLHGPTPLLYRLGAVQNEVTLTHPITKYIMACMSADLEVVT

Row | SMILES | IC50 [µM]
1 | O=C(O)Cc1cn(Cc2csc3ccc(Cl)cc23)c2ccc(Br)cc12 [Example 100] | 10 to 50
2 | O=C(O)Cc1cn(Cc2cccc(OCc3ccccc3)c2)c2ccc(Br)cc12 [Example 101] | < 10
3 | CC(C)c1ccc(Cn2cc(CC(=O)O)c3cc(Br)ccc32)cc1 [Example 102] | 10 to 50
4 | O=C(O)Cc1cn(Cc2ccccc2C(F)(F)F)c2ccc(Br)cc12 [Example 103] | 10 to 50
5 | O=C(O)Cc1cn(CCCc2ccccc2)c2ccc(Br)cc12 [Example 104] | 10 to 50
6 | O=C(O)Cc1cn(Cc2cccc(Oc3ccccc3)c2)c2ccc(Br)cc12 [Example 105] | < 10
7 | COc1ccc2c(c1)c(CC(=O)O)cn2Cc1csc2ccc(Cl)cc12 [Example 106] | 10 to 50
8 | COc1ccc2c(c1)c(CC(=O)O)cn2Cc1cccc(OCc2ccccc2)c1 [Example 107] | 10 to 50
9 | O=C(O)Cc1cn(Cc2cccc(Cl)c2)c2ccc(Br)cc12 [Example 108] | 10 to 50
10 | O=C(O)Cc1cn(Cc2ccc(-c3ccccc3)cc2)c2ccc(Br)cc12 [Example 109] | < 10
11 | O=C(O)Cc1cn(Cc2ccc(Cl)c(Cl)c2)c2ccc(Br)cc12 [Example 110] | 10 to 50
12 | COc1cccc(Cn2cc(CC(=O)O)c3cc(Br)ccc32)c1 [Example 111] | 10 to 50
13 | O=C(O)Cc1cn(Cc2cccc(-c3ccccc3)c2)c2ccc(OCc3ccccc3)cc12 [Example 112] | < 10
14 | O=C(O)Cc1cn(Cc2cccc(Br)c2)c2ccc(OCc3ccccc3)cc12 [Example 113] | 10 to 50
15 | CC(C)c1ccc(Cn2cc(CC(=O)O)c3cc(OCc4ccccc4)ccc32)cc1 [Example 114] | 10 to 50
16 | O=C(O)Cc1cn(Cc2cccc(Oc3ccccc3)c2)c2ccc(OCc3ccccc3)cc12 [Example 115] | < 10
17 | O=C(O)Cc1cn(Cc2cccc(OCc3ccccc3)c2)c2ccccc12 [Example 116] | 10 to 50
18 | CN(C)C(=O)c1cccc(-c2cccc(Cn3cc(CC(=O)O)c4cc(OCc5ccccc5)ccc43)c2)c1 [Example 117] | 10 to 50
19 | Cc1cc(-c2cccc(Cn3cc(CC(=O)O)c4cc(OCc5ccccc5)ccc43)c2)ccc1F [Example 118] | < 10
20 | O=C(O)Cc1cn(Cc2cccc(-c3cncnc3)c2)c2ccc(OCc3ccccc3)cc12 [Example 119] | 10 to 50
21 | O=C(O)Cc1cn(Cc2cccc(Oc3ccc(F)cc3)c2)c2ccc(OCc3ccccc3)cc12 [Example 120] | < 10
22 | O=C(O)Cc1cn(Cc2csc3ccc(Cl)cc23)c2ccccc12 [Example 121] | 10 to 50
23 | O=C(O)Cc1cn(Cc2ccc(-c3ccccc3)cc2)c2ccc(OCc3ccccc3)cc12 [Example 122] | < 10
24 | O=C(O)Cc1cn(Cc2cccc(I)c2)c2ccc(OCc3ccccc3)cc12 [Example 123] | < 10

Row | SMILES | IC50 [µM]
25 | Cc1cc(-c2cccc(Cn3cc(CC(=O)O)c4cc(OCc5ccccc5)ccc43)c2)on1 [Example 124] | 10 to 50
26 | O=C(O)Cc1cn(Cc2csc(-c3ccccc3)n2)c2ccc(OCc3ccccc3)cc12 [Example 125] | 10 to 50
27 | O=C(O)Cc1cn(Cc2noc(-c3ccccc3)n2)c2ccc(OCc3ccccc3)cc12 [Example 126] | 10 to 50
28 | O=C(O)Cc1cn(Cc2cccc(-c3c[nH]nn3)c2)c2ccc(OCc3ccccc3)cc12 [Example 127] | 10 to 50
29 | CCOC(=O)c1ccc(Cn2cc(CC(=O)O)c3cc(OCc4ccccc4)ccc32)o1 [Example 128] | 10 to 50
30 | O=C(O)Cc1cn(Cc2cccc(-c3cccc(Cl)c3)c2)c2ccc(OCc3ccccc3)cc12 [Example 129] | < 10
31 | O=C(O)Cc1cn(Cc2cccc(-c3cccnc3)c2)c2ccc(OCc3ccccc3)cc12 [Example 130] | 10 to 50
32 | O=C(O)Cc1cn(Cc2cccc(-c3cn[nH]c3)c2)c2ccc(OCc3ccccc3)cc12 [Example 131] | < 10
33 | O=C(O)Cc1cn(Cc2csc3ccc(F)cc23)c2ccc(Br)cc12 [Example 132] | 10 to 50
34 | O=C(O)Cc1cn(Cc2csc3ccc(F)cc23)c2ccccc12 [Example 133] | 10 to 50
35 | O=C(O)Cc1cn(Cc2cc(F)cc(C(F)(F)F)c2)c2ccc(Br)cc12 [Example 134] | 10 to 50
36 | O=C(O)Cc1cn(Cc2csc3ccc(Br)cc23)c2ccc(Br)cc12 [Example 135] | < 10
37 | COc1ccc2scc(Cn3cc(CC(=O)O)c4cc(Br)ccc43)c2c1 [Example 136] | < 10
38 | O=C(O)Cc1cn(Cc2ccc(Cl)s2)c2ccc(Br)cc12 [Example 137] | 10 to 50
39 | O=C(O)Cc1cn(Cc2cc(-c3ccccc3)no2)c2ccc(Br)cc12 [Example 138] | 10 to 50
40 | CC(C)Oc1ccc2scc(Cn3cc(CC(=O)O)c4cc(Br)ccc43)c2c1 [Example 140] | < 10
41 | CC(C)Oc1ccc2scc(Cn3cc(CC(=O)O)c4cc(Br)ccc43)c2c1 [Example 141] | 10 to 50
42 | CCOc1ccc2scc(Cn3cc(CC(=O)O)c4ccccc43)c2c1 [Example 142] | 10 to 50
43 | O=C(O)Cc1cn(-c2ccc3ccccc3c2)c2ccccc12 [Example 143] | 10 to 50
44 | COc1cccc(-c2ccc(-n3cc(CC(=O)O)c4ccccc43)cc2)c1 [Example 144] | < 10
45 | O=C(O)Cc1cn(-c2ccc(-c3cccc(Cl)c3)cc2)c2ccccc12 [Example 145] | < 10
46 | Cc1ccc2sc(-n3cc(CC(=O)O)c4ccccc43)cc2c1 [Example 146] | < 10
47 | O=C(O)Cc1cn(-c2ccc3sccc3c2)c2ccccc12 [Example 147] | 10 to 50
48 | O=C(O)Cc1cn(-c2ccc3c(c2)CCC3=O)c2ccccc12 [Example 148] | 10 to 50

Row | SMILES | IC50 [µM]
49 | CCc1cc2cc(-n3cc(CC(=O)O)c4ccccc43)ccc2s1 [Example 149] | < 10
50 | Cc1c(Cl)cccc1-c1ccc(-n2cc(CC(=O)O)c3ccccc32)cc1 [Example 150] | < 10
51 | O=C(O)Cc1cn(-c2ccc(-c3cc(Cl)cc(Cl)c3)cc2)c2ccccc12 [Example 151] | < 10
52 | O=C(O)Cc1cn(-c2ccc(-c3cccc(C(F)(F)F)c3)cc2)c2ccccc12 [Example 152] | < 10
53 | O=C(O)Cc1cn(-c2ccc(-c3ccccc3Cl)cc2)c2ccccc12 [Example 153] | < 10
54 | Cc1ccccc1-c1ccc(-n2cc(CC(=O)O)c3ccccc32)cc1 [Example 154] | < 10
55 | CSc1cccc(-c2ccc(-n3cc(CC(=O)O)c4ccccc43)cc2)c1 [Example 155] | < 10
56 | Cc1cc(NC(=O)Cc2ccccc2)ccc1-n1cc(CC(=O)O)c2ccccc21 [Example 156] | 10 to 50
57 | Cc1cc(NC(=O)Cc2cccs2)ccc1-n1cc(CC(=O)O)c2ccccc21 [Example 157] | 10 to 50
58 | Cc1cc(NC(=O)c2cccs2)ccc1-n1cc(CC(=O)O)c2ccccc21 [Example 158] | 10 to 50
59 | Cc1cc(NC(=O)CSc2ccccc2)ccc1-n1cc(CC(=O)O)c2ccccc21 [Example 159] | 10 to 50
60 | CC(=O)N(C)c1ccc(-n2cc(CC(=O)O)c3ccccc32)c(C)c1 [Example 160] | 10 to 50
61 | O=C(O)Cc1cn(-c2ccc(NCc3ccccc3)cc2)c2ccccc12 [Example 161] | < 10
62 | CN(Cc1ccccc1)c1ccc(-n2cc(CC(=O)O)c3ccccc32)cc1 [Example 162] | < 10
63 | Cc1oncc1C(=O)Nc1ccc(-n2cc(CC(=O)O)c3ccccc32)cc1 [Example 163] | 10 to 50
64 | O=C(O)Cc1cn(-c2ccc(NC(=O)Cc3ccsc3)cc2)c2ccccc12 [Example 164] | 10 to 50
65 | CCN(Cc1ccccc1)c1ccc(-n2cc(CC(=O)OC)c3ccccc32)cc1 [Example 165] | 10 to 50
66 | CCN(Cc1ccccc1)c1ccc(-n2cc(CC(=O)O)c3ccccc32)cc1 [Example 166] | < 10
67 | CC(C)N(Cc1ccccc1)c1ccc(-n2cc(CC(=O)O)c3ccccc32)cc1 [Example 167] | < 10
68 | O=C(O)Cc1cn(-c2ccc(N(CCO)Cc3ccccc3)cc2)c2ccccc12 [Example 168] | 10 to 50
69 | O=C(O)Cc1cn(-c2ccc(N(Cc3ccccc3)Cc3ccccc3)cc2)c2ccccc12 [Example 169] | < 10
70 | CCCN(Cc1ccccc1)c1ccc(-n2cc(CC(=O)O)c3ccccc32)cc1 [Example 170] | 10 to 50

Same assay, conditions: Table 27, compounds made using Scheme 34

Row | SMILES | IC50 Activity
71 | CCOC(=O)Cc1cn(Cc2c(C)sc3ccc(Cl)cc23)c2cc(-c3cc(N)cc(N)c3)ccc12 [Compound 617] | B or C

Same assay, conditions: Table 30, compounds made using Scheme 37; read-out: IC50 Activity

Row | SMILES | IC50 [µM]
72 | CCOC(=O)Cc1cn(Cc2cccc(N(C)c3ccccc3Cl)c2)c2cc(-c3cccc(O)c3)ccc12 [Compound 624] | 10 to 50
